In PubChem BioAssay (NCI):
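Dose response: 5 concentrations. Exposure: 48 h. Format: 96-well plates. Endpoint: linear interpolation; highest concentration if not reached. The concentration for 50% growth inhibition is given as GI50. At the TGI there is no net growth.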

How the values were obtained:
Assay in all cases: NCI anticancer screen, dose series, 48 h
[1] = tested on: K-562 leukemia
[2] = tested on: COLO 205 colon
[3] = tested on: 786-0 renal
[4] = tested on: UACC-62 melanoma
[5] = tested on: SK-MEL-5 melanoma
[6] = tested on: EKVX NSCLC
[7] = tested on: HT29 colon
[8] = tested on: SNB-19 CNS
[9] = tested on: A498 renal
[10] = tested on: SW-620 colon

Row | SMILES | GI50 [1] [µM] | TGI [1] [µM] | GI50 [2] [µM] | TGI [2] [µM] | GI50 [3] [µM] | TGI [3] [µM] | GI50 [4] [µM] | TGI [4] [µM] | GI50 [5] [µM] | TGI [5] [µM] | GI50 [6] [µM] | TGI [6] [µM] | GI50 [7] [µM] | TGI [7] [µM] | GI50 [8] [µM] | TGI [8] [µM] | GI50 [9] [µM] | TGI [9] [µM] | GI50 [10] [µM] | TGI [10] [µM]
1 | Cc1cc(C)c(CNC(=O)c2cc(Cl)c3c(c2C)O[C@@](C)(C2CCC(N(C)C)CC2)O3)c(=O)[nH]1 (some centres not stated) | 41.6 | > 100 | > 100 | > 100 | 33.1 | > 100 | > 100 | > 100 | 21.3 | 63.2 | > 100 | > 100 | 33.8 | > 100 | > 100 | > 100 | 27.8 | > 100 | > 100 | > 100
2 | CC(C)c1c(C(=O)Nc2ccccc2)c(-c2ccccc2)c(-c2ccc(F)cc2)n1CC[C@@H](O)C[C@@H](O)CC(=O)O | 31.2 | > 100 | 24.5 | > 78.9 | 22.3 | > 81.2 | 6.59 | 51.5 | 9.95 | 25.4 | 49.4 | > 100 | 50.3 | > 100 | 10.5 | > 100 | 0.516 | 4.52 | 22.2 | > 100
3 | C=C(CN1CCc2ccccc2C1)c1ccc(C(=O)Nc2cccc(N)c2)cc1 | 7.53 | 30 | 20.7 | 45.5 | 17.2 | 46.6 | 17.1 | 33.3 | 13.6 | 28.3 | 9.48 | 56.2 | 20.4 | 94.7 | 35.9 | > 100 | 20.5 | 45.5 | 23 | 52.1
4 | COc1cccc(-c2cc(-c3ccc(Nc4nc(Nc5ccc(Cl)cc5)nc(Nc5ccc(Cl)cc5)n4)cc3)nc(N)c2C#N)c1 | 1.52 | 5.53 | 1.63 | 3.39 | 1.77 | 3.43 | 14.6 | 37.8 | 2.03 | 6.35 | 4.79 | 16.3 | 3.96 | 35.8 | 10.3 | > 39.3 | 4.7 | 29.4 | 2.41 | 5.64
5 | COc1ncc(-c2ccc3nc(N)n(-c4ccccc4C(F)(F)F)c(=O)c3c2)cc1S(=O)(=O)Nc1ccc(F)cc1F | 5.73 | > 100 | 0.511 | 1.82 | 3.16 | 83.7 | 3.06 | 9.59 | 0.273 | 0.944 | 0.86 | > 100 | 0.635 | 4.53 | 7.87 | 45.8 | 0.329 | 1.96 | 1.84 | 20
6 | CC1(C)N=C(N)N=C(N)N1c1cccc(CC(=O)Nc2ccccc2)c1 | 2.87 | > 100 | 47.3 | > 100 | 78.5 | > 100 | 8.3 | > 100 | 4.44 | > 100 | > 100 | > 100 | 2.35 | > 100 | 39.7 | > 100 | 22.8 | > 100 | 4.56 | > 100
7 | Cc1ccc(CNc2ccc(Cl)cc2NCc2ccc(C)c(O)c2)cc1O | 5.98 | 18 | 8.01 | 15.9 | 8.27 | 15.4 | 7.55 | 14.5 |  |  | 8.14 | 15.4 | 9.73 | 17.9 | 7.69 | 15.3 | 8.55 | 16.1 | 8.22 | 16.8
8 | CC1(C)CC[C@]2(C(=O)O)CC[C@]3(C)C(=CC[C@@H]4[C@@]5(C)C/C(=C/c6cccnc6)[C@H](O)C(C)(C)[C@@H]5CC[C@]43C)[C@@H]2C1 | 3.1 | > 100 | 9.71 | 29.6 | 11.2 | > 100 | 4.72 | 36.4 | 6.71 | 23.2 | 6.02 | 56.6 | 8.78 | 42.1 | 5.55 | > 100 | > 100 | > 100 | 5.34 | > 100
9 | CCOc1ccc(/C=C/C(=O)c2sc(NNC(C)=O)nc2C)cc1 |  | > 100 |  | > 100 |  | > 100 |  | > 100 |  | > 100 |  | > 100 |  | > 100 |  | > 100 |  | > 100 |  | > 100
10 | CCCN1CCCC(c2ccc(Nc3nc(Nc4cc(F)ccc4C(N)=O)c4cc[nH]c4n3)c(OC)c2)C1 (configuration not stated) | 0.825 | 5.59 | 0.015 | 1.23 | 2.84 | 6.29 | 3.11 | 6.31 | 3.03 | 6.24 | 0.862 | 5.19 | 0.0108 | 3.15 | 3.19 | 6.45 | 0.779 | 4.34 | 0.106 | 3.66
11 | N#Cc1cccc(C2SCc3nc4ccccc4n32)c1 (configuration not stated) |  | > 100 |  | > 100 |  | > 100 |  | > 100 |  | 65.2 |  | > 100 |  | > 100 |  | > 100 |  | > 100 |  | > 100
12 | CCn1nc(C#Cc2c(C)ccc3c(Nc4ccc(Cl)cc4)nccc23)c2c(N)ncnc21 | 2.18 | > 100 | 2.36 | > 100 | 3.66 | > 100 | 1.6 | 9.1 | 2.14 | 6.55 | 7.4 | > 100 | 2.32 | > 100 | 4.93 | > 100 | 2.54 | 8.65 | 2.99 | > 100
13 | CC/C(=C\c1ccc(N(C)C)cc1)c1ccncc1 | 3.78 | > 100 | 3.94 | 21.1 | 6.31 | 46.4 | 5.04 | > 100 | 3.43 | 16.4 | 3.29 | > 100 | 4.43 | > 100 | 9.09 | > 100 | 4.35 | > 100 | 4.04 | > 100
14 | COc1cc2nc(NC3CCC3)nc(NC3CCN(C(C)C)CC3)c2cc1OC | 0.902 | 10.2 | 1.88 | 3.81 | 1.85 | 3.91 | 1.79 | 3.35 | 1.75 | 3.15 | 4.65 | 23.4 | 1.75 | 3.97 |  |  | 1.24 | 7.05 | 2.49 | 7.02
15 | CC(C)OC(=O)OCOP(=O)(OCOC(=O)OC(C)C)C1CCCN(O)C1=O (configuration not stated) | 0.81 | > 100 | 3.71 | > 100 | 0.407 | > 100 | 0.704 | 3.29 | 1.3 | 7.3 | 3.03 | > 100 | 0.571 | > 100 | 1.21 | > 100 | 0.0732 | 0.867 | 1.37 | > 100
16 | CN(C)c1ccc(-c2cc(-c3cccc(NS(C)(=O)=O)c3)nc(N)c2C#N)cc1 | 0.0372 | 48.5 | 0.025 | 0.0729 | 0.0491 | 13.5 | 0.0357 | 19.8 | 0.0414 | 0.997 | 0.133 | > 63.8 | 0.0319 | 0.457 | 0.0526 | > 48.9 | 0.054 | 38.8 | 0.0411 | 18.6
17 | CCc1cccc(CC)c1NC1=CC(=O)C(=O)c2ccccc21 |  | > 100 |  | > 100 |  | 44.9 |  | 30.1 |  | 21.6 |  | 27.9 |  | 3.95 |  | 63.3 |  | 39.5 |  | 31.7
18 | COC(=O)[C@@H](C)C[C@H](Cc1ccccc1)NC(=O)c1nc([C@@H](C[C@H](C(C)C)N(C)C(=O)[C@@H](NC(=O)[C@H]2CC(=O)CCN2C)C(C)C)OC(C)=O)sc1C(C)C | 0.0684 | > 16.7 | 0.208 | 1.69 | 0.347 | 8.82 | 0.0722 | > 16.7 | 0.0869 | 1.76 | 0.953 | > 16.7 | 0.146 | > 6.97 | 0.183 | > 16.7 | 0.0826 | 0.818 | 0.141 | > 16.7
19 | Cc1nc2ccccc2c(=O)n1/N=C(\N=Nc1ccc(Cl)cc1)c1ccc(N(C)C)cc1 |  | > 100 |  | > 100 |  | > 100 |  | > 100 |  | > 100 |  | > 100 |  | > 100 |  | > 100 |  | > 100 |  | > 100
20 | C/C=C/C(C/C=C(\C)CO[Si](C)(C)C(C)(C)C)O[Si](C)(C)C(C)(C)C (configuration not stated) |  | > 100 |  | > 100 |  | > 100 |  | > 100 |  | > 100 |  | > 100 |  | > 100 |  | > 100 |  | > 100 |  | > 100
21 | CCC[CH2][Sn]1([CH2]CCC)[O]C(=O)c2cccnc2[S]1 | 1.65 | 5.48 | 3.34 | 9.33 | 2.55 | 6.8 | 1.87 | 5.53 | 4.96 | 17 | 2.46 | 11.9 | 11.1 | 24.7 | 6.88 | 19.5 | 2.37 | 5.3 | 1.88 | 4.31
22 | OC1(c2ccccc2)c2ccccc2N(c2ccccc2)c2ccc(Cl)cc21 (configuration not stated) | 0.18 | 1.14 | 0.147 | 0.338 | 0.253 | 0.68 | 0.195 | 0.452 | 0.186 | 0.432 | 0.286 | 1.25 | 0.283 | 0.918 | 0.378 | 1.45 | 0.198 | 0.765 | 0.197 | 0.491
23 | O=C(c1ccco1)c1c(C(F)(F)F)n([O-])c2cc(Cl)c(Cl)cc2[n+]1=O | 0.173 | 2.87 | 1.82 | 18.3 | 0.241 | 0.456 | 0.705 | 1.49 | 0.727 | 1.45 | 0.887 | 1.86 | 1.22 | 17.3 | 6.41 | 14.8 | 1.53 | 3.62 | 0.873 | 2.48
24 | CC(=O)O[C@@H]1[C@H]2O[C@H]2[C@H]2O[C@@]2(COC(=O)c2ccccc2)[C@H]1OC(C)=O |  | > 100 |  | > 100 |  | > 100 |  | > 100 |  | > 100 |  | > 100 |  | > 100 |  | > 100 |  | > 100 |  | > 100
25 | BrC(/C=N/Nc1nnc(-c2ccccc2)c(-c2ccccc2)n1)C(Br)c1ccccc1 (configuration not stated) |  | > 100 |  | > 100 |  | > 100 |  | 53.5 |  | 57.9 |  | > 100 |  | > 100 |  | > 100 |  | > 100 |  | > 100
26 | CCCCP1(=O)C=CC(Cl)=C(C)C1 (configuration not stated) |  | > 100 |  | > 100 |  | > 100 |  | > 100 |  | > 100 |  | > 100 |  | > 100 |  |  |  | > 100 |  | > 100
27 | CCN(CC)CCCC(C)Nc1ccnc2cc(OC)ccc12 (configuration not stated) | 33.7 | > 100 | 16.1 | 36.8 | 17.1 | 35.9 | 19.5 | 37.7 | 18.3 | 32.8 | 44.9 | > 100 |  |  | 22.4 | 53.3 | 35.3 | > 100 | 23.7 | 58.2
28 | C/C(=N\NC(N)=S)c1ccc(Oc2ccccc2)cc1 |  | 21.5 |  | 25.7 |  | 14.5 |  | 28.8 |  | 18.8 |  | 50.4 |  |  |  | 84.5 |  | 29.5 |  | 53.9
